The structures appear in SMILES notation. “Also recorded” adds a separate entry of the source. Marks after values point to notes of the source that are not given here.

Data set [1] deals with tachyzoites of T.gondii strain 2F. The data set is described as follows: Five day growth inhibition assay. Type of data set: cell-based, Toxoplasma gondii. Conditions: HFF cells.
The test system of data set [2] is intracellular T. gondii tachyzoites in HFF monolayers. The data set is described as follows: Replication assay. Type of data set: cell-based, Toxoplasma gondii. The following applies: for inhibition at 10 µM: Toxoplasma gondii, read-out: Inhibition of parasite replication; for Parasite doublings per vacuole, dose-response experiment: separate experiments, authors' unpublished results [37]; for Replication inhibition, result in words: added 2 h after inoculation, 24-26 h.

The subject of data set [3] is human foreskin fibroblast (HFF) host cells. Type of data set: cell-based. Conditions: 5 days.

On to `CCN(CC)C(=O)C1=C(C)[C@@H]2CC[C@@H](C)[C@@H]3CC[C@@]4(C)OO[C@@]23[C@H](O1)O4` [Compound 16], for which the “Growth inhibition, result in words” value in data set [1] is recorded as “ineffective; also recorded: activity is lost”.

Broadly, the inhibition is the share of the control response that was lost under treatment. As to `CC1=C(C(=O)NCc2ccc(F)c(F)c2)O[C@@H]2O[C@@]3(C)CC[C@H]4[C@H](C)CC[C@@H]1[C@@]24OO3` [Compound 23], the inhibition at 10 µM in data set [2] was 50%.

`CC1=C(c2nc(-c3ccccc3)cs2)O[C@@H]2O[C@@]3(C)CC[C@H]4[C@H](C)CC[C@@H]1[C@@]24OO3` [Compound 5]: the “Parasite doublings per vacuole, dose-response experiment” value (shortened to “Parasite doublings per vacuole”) was 1 doubling in data set [2] (1 μM), 1 doubling in data set [2] (5 μM) and 0.5 doubling in data set [2] (10 μM).

Take `CC1=C(C(=O)NCc2ccc(C(F)(F)F)cc2)O[C@@H]2O[C@@]3(C)CC[C@H]4[C@H](C)CC[C@@H]1[C@@]24OO3` [Compound 22]: the “Replication inhibition, result in words” value in data set [2] (10 μM) is on record as “effectively inhibited replication”. In data set [2], the inhibition at 10 µM was 75%.

For the compound `CC1=C(c2nc(C)no2)O[C@@H]2O[C@@]3(C)CC[C@H]4[C@H](C)CC[C@@H]1[C@@]24OO3` [Compound 13], in data set [2], the inhibition at 10 µM worked out at 50%.

As to `CC1=C(c2nc(-c3ccccc3)no2)O[C@@H]2O[C@@]3(C)CC[C@H]4[C@H](C)CC[C@@H]1[C@@]24OO3` [Compound 14], the “Parasite doublings per vacuole” value in data set [2] (1 μM) is 1 doubling; in data set [2] (5 μM), 1 doubling; in data set [2] (10 μM) it was 0.5 doubling. The “Replication inhibition, result in words” value in data set [2] (10 μM) was “effectively inhibited replication”. In addition, in data set [2], the inhibition at 10 µM came to 75%.

Consider `CC1=C(C(=O)NCc2ccccc2)O[C@@H]2O[C@@]3(C)CC[C@H]4[C@H](C)CC[C@@H]1[C@@]24OO3` [Compound 18], for which the inhibition at 10 µM in data set [2] came out at 50%.

In the case of `CC1=C(C(=O)NCc2ccc(F)cc2)O[C@@H]2O[C@@]3(C)CC[C@H]4[C@H](C)CC[C@@H]1[C@@]24OO3` [Compound 20], the “Replication inhibition, result in words” value in data set [2] (10 μM) is “effectively inhibited replication”. For the same compound, the inhibition at 10 µM in data set [2] worked out at 75%.

With `CC1=C(c2nc(C)c(C)s2)O[C@@H]2O[C@@]3(C)CC[C@H]4[C@H](C)CC[C@@H]1[C@@]24OO3` [Compound 3], the “Parasite doublings per vacuole” value in data set [2] (1 μM), in data set [2] (5 μM) and in data set [2] (10 μM) was 1 doubling each time.

Consider `CC1=C(C(=O)NCc2ccc(C)cc2)O[C@@H]2O[C@@]3(C)CC[C@H]4[C@H](C)CC[C@@H]1[C@@]24OO3` [Compound 21], for which the inhibition at 10 µM in data set [2] was 50%.

On to `CC1=C(C(=O)NCc2cc(Br)cc(Br)c2)O[C@@H]2O[C@@]3(C)CC[C@H]4[C@H](C)CC[C@@H]1[C@@]24OO3` [Compound 25], for which the “Replication inhibition, result in words” value in data set [2] (10 μM) is recorded as “completely inhibited replication; also recorded: effectively inhibited replication”. For the same compound, the “Growth inhibition, result in words” value in data set [1] is given as “potent parasite inhibition”.

Turning to `CC1=C(c2nc(-c3ccc(S(C)(=O)=O)cc3)cs2)O[C@@H]2O[C@@]3(C)CC[C@H]4[C@H](C)CC[C@@H]1[C@@]24OO3` [Compound 12], the inhibition at 10 µM in data set [2] came to 75%.

Take `CO[C@H]1O[C@@H]2O[C@@]3(C)CC[C@H]4[C@H](C)CC[C@@H]([C@H]1C)[C@@]24OO3` [Artemether, reference compound]: the “Replication inhibition, result in words” value in data set [2] (10 μM) was “only modest inhibition”.

Take `COc1cc(Cc2cnc(N)nc2N)cc(OC)c1OC` [Trimethoprim]: in data set [3], the “TD50, median cytotoxic dose” value is ≥320 ^b μM.

Turning to `CC1=C(c2ncc(C)s2)O[C@@H]2O[C@@]3(C)CC[C@H]4[C@H](C)CC[C@@H]1[C@@]24OO3` [Compound 4], the “Parasite doublings per vacuole” value is listed as 2 doubling in data set [2] (1 μM), 1 doubling in data set [2] (5 μM) and 1 doubling in data set [2] (10 μM).

Consider `CC1=C(c2nc(C)cs2)O[C@@H]2O[C@@]3(C)CC[C@H]4[C@H](C)CC[C@@H]1[C@@]24OO3` [Compound 2], for which the “Parasite doublings per vacuole” value in data set [2] (1 μM) was 2 doubling; in data set [2] (5 μM), 1 doubling; in data set [2] (10 μM), 1 doubling.

Regarding `CSc1ccc(-c2csc(C3=C(C)[C@@H]4CC[C@@H](C)[C@@H]5CC[C@@]6(C)OO[C@@]45[C@H](O3)O6)n2)cc1` [Compound 11], the “Replication inhibition, result in words” value in data set [2] (10 μM) is recorded as “completely inhibited replication”.

`CC1=C(c2nc(C3CCCCC3)cs2)O[C@@H]2O[C@@]3(C)CC[C@H]4[C@H](C)CC[C@@H]1[C@@]24OO3` [Compound 8]: in data set [2] (10 μM), the “Replication inhibition, result in words” value was “only weakly inhibited replication”. Besides, the “Growth inhibition, result in words” value in data set [1] is on record as “ineffective”.

On to `CC1=C(C(=O)NCc2cc(F)cc(F)c2)O[C@@H]2O[C@@]3(C)CC[C@H]4[C@H](C)CC[C@@H]1[C@@]24OO3` [Compound 24], for which the inhibition at 10 µM in data set [2] came to 50%. In addition, the “Growth inhibition, result in words” value in data set [1] is “potent parasite inhibition”.

On to `CCNC(=O)C1=C(C)[C@@H]2CC[C@@H](C)[C@@H]3CC[C@@]4(C)OO[C@@]23[C@H](O1)O4` [Compound 15], for which the inhibition at 10 µM in data set [2] came out at 50%.

On to `C[C@@H]1CC[C@H]2[C@@H](C)C(=O)O[C@@H]3O[C@@]4(C)CC[C@@H]1[C@]32OO4` [Artemisinin, reference compound], for which the “Replication inhibition, result in words” value in data set [2] (10 μM) is reported as “no measurable activity”.

The record behind these values is article PMC2865576 (Journal of medicinal chemistry, 2010).
